Data published in PubChem BioAssay (NCI).
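Each compound was tested at five concentrations against cells in 96-well plates for 48 hours. At the GI50, growth is halved. TGI: total growth inhibition.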

Assays:
Assay in all cases: NCI tumour cell line growth inhibition, 48 h
[1] = test system: IGROV1 ovarian
[2] = test system: RXF 393 renal
[3] = test system: MCF7 breast
[4] = test system: A498 renal
[5] = test system: RPMI-8226 leukemia
[6] = test system: HCC-2998 colon
[7] = test system: HL-60(TB) leukemia
[8] = test system: SW-620 colon
[9] = test system: OVCAR-5 ovarian
[10] = test system: SF-268 CNS
[11] = test system: 786-0 renal
[12] = test system: OVCAR-8 ovarian
[13] = test system: HOP-62 NSCLC
[14] = test system: NCI/ADR-RES ovarian
[15] = test system: M14 melanoma
[16] = test system: A549 NSCLC
[17] = test system: CCRF-CEM leukemia
[18] = test system: SF-295 CNS
[19] = test system: MOLT-4 leukemia
[20] = test system: HCT-116 colon
[21] = test system: MDA-MB-435
[22] = test system: K-562 leukemia
[23] = test system: UACC-62 melanoma
[24] = test system: HCT-15 colon
[25] = test system: SN12C renal
[26] = test system: UO-31 renal
[27] = test system: MALME-3M melanoma
[28] = test system: OVCAR-4 ovarian
[29] = test system: SNB-75 CNS
[30] = test system: DU-145 prostate
[31] = test system: KM12 colon
[32] = test system: NCI-H460 lung
[33] = test system: HOP-92 NSCLC
[34] = test system: ACHN renal
[35] = test system: OVCAR-3 ovarian
[36] = test system: SR leukemia
[37] = test system: NCI-H226 lung
[38] = test system: TK-10 renal
[39] = test system: NCI-H23 lung
[40] = test system: CAKI-1 renal
[41] = test system: SK-MEL-2 melanoma
[42] = test system: BT-549 breast
[43] = test system: SK-OV-3 ovarian
[44] = test system: MDA-MB-231 breast
[45] = test system: EKVX NSCLC
[46] = test system: U251 CNS
[47] = test system: HT29 colon
[48] = test system: SK-MEL-5 melanoma
[49] = test system: LOX IMVI melanoma
[50] = test system: NCI-H522 lung
[51] = test system: UACC-257 melanoma
[52] = test system: HS 578T breast
[53] = test system: SNB-19 CNS
[54] = test system: T-47D breast
[55] = test system: PC-3 prostate
[56] = test system: SK-MEL-28 melanoma
[57] = test system: SF-539 CNS
[58] = test system: COLO 205 colon

`CC#CC(=O)N[C@H]1CCCN(c2c(F)cc(C(N)=O)c3[nH]c(C)c(C)c23)C1` gave a GI50 [1] of 14 µM, a TGI [1] of 31.6 µM and a GI50 [2] of 12.6 µM. The TGI [2] was 26.6 µM, the GI50 [3] was 17.3 µM and the TGI [3] was 36 µM. The GI50 [4] was 12 µM, the TGI [4] was 26.6 µM and the GI50 [5] was 16.5 µM. It also gave a TGI [5] of 44.8 µM, a GI50 [6] of 16.6 µM and a TGI [6] of 30.7 µM. The GI50 [7] was 21.4 µM, the TGI [7] was 46 µM and the GI50 [8] was 19.8 µM. For the same compound, the TGI [8] was 39 µM, the GI50 [9] was 23 µM and the TGI [9] was 88.5 µM. For the same compound, the GI50 [10] was 17.4 µM, the TGI [10] was 45.1 µM and the GI50 [11] was 19 µM. For the same compound, the TGI [11] was 56.6 µM, the GI50 [12] was 26.1 µM and the TGI [12] was 94.7 µM. The GI50 [13] was 24.9 µM, the TGI [13] was greater than 100 µM and the GI50 [14] was 19.9 µM. For the same compound, the TGI [14] was 49.6 µM, the GI50 [15] was 18.6 µM and the TGI [15] was 42 µM. The GI50 [16] was 21.3 µM, the TGI [16] was 70.2 µM and the GI50 [17] was 27.5 µM. The TGI [17] was 85 µM, the GI50 [18] was 27.3 µM and the TGI [18] was 74.5 µM. The GI50 [19] was 18.8 µM, the TGI [19] was 93.6 µM and the GI50 [20] was 16 µM. It also gave a TGI [20] of 31.2 µM, a GI50 [21] of 16.6 µM and a TGI [21] of 34 µM. The GI50 [22] was 26.8 µM, the TGI [22] was greater than 100 µM and the GI50 [23] was 14.4 µM. The TGI [23] was 28.5 µM, the GI50 [24] was 15.9 µM and the TGI [24] was 32.9 µM. The GI50 [25] was 20.4 µM, the TGI [25] was 58.2 µM and the GI50 [26] was 15.9 µM. For the same compound, the TGI [26] was greater than 100 µM, the GI50 [27] was 16.2 µM and the TGI [27] was 34.3 µM. It also gave a GI50 [28] of 22.5 µM, a TGI [28] of 81.3 µM and a GI50 [29] of 7.66 µM. For the same compound, the TGI [29] was 21.3 µM, the GI50 [30] was 26.1 µM and the TGI [30] was 88.5 µM. For the same compound, the GI50 [31] was 14.3 µM, the TGI [31] was 46.4 µM and the GI50 [32] was 18.1 µM. The TGI [32] was 33.4 µM, the GI50 [33] was 15.6 µM and the TGI [33] was 64.7 µM. For the same compound, the GI50 [34] was 16.4 µM, the TGI [34] was 42.8 µM and the GI50 [35] was 21.9 µM. For the same compound, the TGI [35] was 63.7 µM, the GI50 [36] was 17.6 µM and the TGI [36] was greater than 100 µM. It also gave a GI50 [37] of 21.1 µM, a TGI [37] of 51.6 µM and a GI50 [38] of 24.5 µM. For the same compound, the TGI [38] was 95.7 µM, the GI50 [39] was 19.5 µM and the TGI [39] was 41.8 µM. It also gave a GI50 [40] of 13.4 µM, a TGI [40] of 34.1 µM and a GI50 [41] of 16.4 µM. The TGI [41] was 35.7 µM, the GI50 [42] was 14.9 µM and the TGI [42] was 30.3 µM. For the same compound, the GI50 [43] was 14.4 µM, the TGI [43] was 59.6 µM and the GI50 [44] was 14 µM. It also gave a TGI [44] of 29.1 µM, a GI50 [45] of 18.3 µM and a TGI [45] of 45.9 µM. For the same compound, the GI50 [46] was 17.3 µM, the TGI [46] was 36.3 µM and the GI50 [47] was 25 µM. The TGI [47] was 72.3 µM, the GI50 [48] was 17.9 µM and the TGI [48] was 31.9 µM. For the same compound, the GI50 [49] was 14.9 µM, the TGI [49] was 28.1 µM and the GI50 [50] was 14.4 µM. The TGI [50] was 34.1 µM, the GI50 [51] was 14.5 µM and the TGI [51] was 34.9 µM. It also gave a GI50 [52] of 16.4 µM, a TGI [52] of 83.3 µM and a GI50 [53] of 15.3 µM. For the same compound, the TGI [53] was 28.6 µM, the GI50 [54] was 13.6 µM and the TGI [54] was 44.3 µM. It also gave a GI50 [55] of 21.5 µM, a TGI [55] of 62.2 µM and a GI50 [56] of 17.4 µM. The TGI [56] was 35.6 µM, the GI50 [57] was 13.3 µM and the TGI [57] was 28.4 µM. For the same compound, the GI50 [58] was 21.3 µM and the TGI [58] was 47 µM.
